Measurements: patent publication US11083798B2, “Conjugate including peptide molecule capable of self-assembly in cell organelle and pharmaceutical composition for preventing or treating cancer including conjugate” (UNIST (ULSAN NATIONAL INSTITUTE OF SCIENCE AND TECHNOLOGY), priority 2016, dated 2021)
pIC50: −log10 of the molar value.

Legend:
[1] = liposomal leakage assay (calcein release)
Description: To confirm this expectation, a liposomal leakage assay was conducted.
The release of a self-quenching dye such as calcine from liposome is commonly used to test integrity of lipid bilayers. […] Different concentrations of Mito-FF were added to a vesicle-containing solution, and leakage of encapsulated calcein from the vesicle was monitored.

[2] = tested on: HEK 293T normal cell lines; test: cell viability of normal cell line, Alamar Blue assay; type: cell-based; conditions: 24 hours of treatment
Description: (§1) In order to analyze cell cytotoxicity, the cancer cells were incubated in an incubator including a DMEM medium (available from Gibco) containing 10% of FBS, 1% of penicillin/streptomycin (available from Life Technologies) at a temperature of 37° C. Cell viability thereof was measured 24 hours after cell incubation, by following the protocol of the manufacturer of Alamar Blue assay (available from Thermo Fisher Scientific).
In order to confirm whether apoptosis occurs or not by treatment with Mito-peptides, the cell viability of HEK 293T normal cell lines treated with Mito-FF, Mito-FxFx, Mito-VV, or Mito-GG was measured in the same manner as described above.

HeLa cells [3] = test: TEM image analysis of mitochondrial dysfunction in treated cells; type: cell-based, human; conditions: 20 μM, 3 hours
Description: To visualize the mitochondrial dysfunction induced by Mito-FF, a TEM image analysis was conducted with HeLa cells treated with Mito-FF of a concentration of 20 μM for 3 hours in the same manner as in Example 3.

HeLa cells [4] = test: FITC annexin/PI staining assay, confocal microscopy; type: cell-based, human; conditions: 10 μM, Annexin V positive, PI negative
Description: Mitochondria play a vital role in the initiation of an intrinsic apoptosis cascade. It was anticipated that a Mito-peptide localized in a mitochondrion may self-assemble, thereby causing stress in the mitochondrion and inducing apoptotic mechanisms. To confirm this prediction experimentally, FITC annexin/PI staining assay was performed.
For the FIIC annexin/PI staining assay, HeLa cells were incubated in an incubator including a DMEM medium (available from Gibco) containing 10% of FBS and 1% of penicillin/streptomycin (available from Life Technologies) at a temperature of 37° C. 10 μM of each peptide was incubated for 1, 4, 6, 8, or 10 hours. Following the protocol of the manufacturer, the cells were incubated for 15 minutes at room temperature in the presence of 100 μL of annexin-binding buffer solution, 5 μL of Alexa Fluor 488-conjugated annexin V (V13241 available from Life Technologies), and 1 μL of a 100 μg/mL PI working solution.

HeLa cells [5] = test: mitochondrial membrane potential depolarization with TMRM; type: cell-based, human; conditions: HeLa cells incubated with TMRM and peptide
Excerpt: Under normal conditions, the inner membrane of mitochondria is in an electrochemically polarized state with a higher concentration of H^+ in the inner membrane space. The electrochemical gradient across the membrane causes H^+ to flow to the inner membrane of mitochondria and this process is coupled with production of adenosine triphosphate (ATP). The external materials which may uncouple this process cause the flow of H^+ to be independent of ATP production. This condition is referred as mitochondrial depolarization, which serves as a preliminary indication of mitochondrial dysfunction.
To examine the effect of Mito-FF on the mitochondrial membrane potential, HeLa cells were incubated with TMRM and Mito-FF. The fluorescence emission from the TMRM was monitored at times lapses of 1 hour, 3 hours, and 6 hours. Red fluorescence of TMRM appears when a mitochondrial membrane is completely polarized, whereas depolarization of a mitochondrial membrane causes disappearance of TMRM red fluorescence.
(§2) TEM images of Mito-VV and Mito-FxFx were obtained by observation in the same manner as in Example 3.

HeLa cells [6] = test: ROS generation within mitochondria with Mito SOX Red; type: cell-based, human; conditions: 6 hours of incubation with HeLa cells
Excerpt: The mitochondrial dysfunction may result in excessive production of reactive oxygen species (ROS). To confirm the oxidative stress induced by Mito-FF, generation of ROS within mitochondria was monitored using Mito SOX Red.

HeLa cells [7] = test: ROS generation within the cell with dihydroethidium (DHE); type: cell-based, human
Excerpt: The mitochondrial stress may eventually lead to the whole-cell stress. […] DHE dye may intercalate with nuclear DNA and oxidizes to ethidium in the presence of ROS, which may show red fluorescence.
as §2

[8] = self-assembled morphology and size by electron microscopy (TEM); type: physicochemical; conditions: PBS (10 mM) and water
[9] = critical aggregation concentration (CAC) by pyrene excitation method; type: physicochemical; conditions: pyrene excitation spectrum, I344/I339
Description: In order to verify whether intracellular self-assembly of the Mito-FF according to the present disclosure can occur or not, the CAC of the Mito-FF was measured as follows.
Intensities of emission at 344 nanometers (nm) and 339 nm in a pyrene excitation spectrum differ according to whether pyrene molecules are present as unaggregated individual molecules or as aggregated molecules. The intensities at 344 nm and 339 nm in the excitation spectrum were measured, and the ratio of an intensity in the excitation spectrum at 344 nm to an intensity in the excitation spectrum at 339 nm was calculated. Based on the standard curve shown in FIG. 4, the CAC for Mito-FF was determined.

HeLa cells [10] = test: flow cytometric analysis (FACS) with annexin V/PI staining; type: cell-based, human; conditions: 10 μM
Description: For the quantitative analysis of apoptosis, flow cytometric analysis (FACS) was conducted over time with FI-TC annexin V/PI staining assay by using FACSCalibur (available from BD Bioscience), following the protocol of the manufacturer.
In detail, HeLa cells treated with 10 μM of Mito-FF were incubated for 4 hours or 8 hours. Then, FACS analysis was performed thereon.

[11] = tested on: HeLa, MDA-MB-486, MCF10, PC3, SCC7, HEK293T, NIH-3T3; test: cell cytotoxicity, Alamar Blue assay, variety of cell lines; type: cell-based; conditions: 24 hours, FIG. 33, read-out: IC50 (cell viability)
Description: After the confirmation of the intra-mitochondrial assembly of peptide amphiphile, the toxicity of Mito-peptides toward a variety of cells was analyzed, the cells including cancer cell lines such as HeLa (ATCC, cervical cancer), MDA-MB-486 (ATCC) (mammary cancer) MCF10 (breast cancer), PC3 (ATCC, prostate cancer), SCC7 (ATCC, skin cancer), HEK293T (ATCC), and NIH-3T3 (ATCC).
as §1

HeLa cells [12] = conditions: 24 hours, FIG. 32

NC(=O)[C@H](CCCCNCCCCC[P+](c1ccccc1)(c1ccccc1)c1ccccc1)NC(=O)[C@H](Cc1ccccc1)NC(=O)[C@H](Cc1ccccc1)NC(=O)CCCc1ccc2ccc3cccc4ccc1c2c34 [Mito-FF]
dye leakage at a concentration below the CAC ([1]; concentration below the CAC): did not induce any dye leakage
leakage of calcein / dye release from liposome ([1]; within 24 hours): 100%
toxicity against normal cells [2]: innocuous
state of mitochondrion in TEM image (HeLa cells [3]): severely damaged
time until cells entered an early apoptotic stage (HeLa cells [4]): ≤ 6 h
time until red fluorescence of TMRM disappeared (membrane depolarization) (HeLa cells [5]): ≤ 6 h
ROS generation inside mitochondria (Mito SOX Red) (HeLa cells [6]): ROS was generated inside the mitochondria
ROS generation within the cell (DHE) (HeLa cells [7]): significant ROS was generated
average length of nanofibers [8]: 500 nm
average width of individual fibers [8]: 10 nm
critical aggregation concentration (CAC) [9]: 60 µM
time at which late apoptotic stage started (HeLa cells [10]): > 10 h
total population of the cells that entered an early apoptotic stage (HeLa cells [10]; within 2 hours): about 81.2%

NC(=O)[C@H](CCCCNCCCCC[P+](c1ccccc1)(c1ccccc1)c1ccccc1)NC(=O)[C@H](CC1CCCCC1)NC(=O)[C@H](CC1CCCCC1)NC(=O)CCCc1ccc2ccc3cccc4ccc1c2c34 [Mito-FxFx]
ROS generation within the cell (DHE) (HeLa cells [7]): ROS generation
pIC50 [11]: 5.00

CC(C)[C@H](NC(=O)CCCc1ccc2ccc3cccc4ccc1c2c34)C(=O)N[C@H](C(=O)N[C@@H](CCCCNCCCCC[P+](c1ccccc1)(c1ccccc1)c1ccccc1)C(N)=O)C(C)C [Mito-VV]
ROS generation within the cell (DHE) (HeLa cells [7]): ROS generation
pIC50 [11]: 5.00

pyrene-FFKFxrFxr
toxicity in HeLa cells (HeLa cells [12]): significant toxicity
